What all share (assay type): cell-based, human
For experiment [1], the system named is UAG-MS2 editing reporter. As to the kind of experiment: Stop codon editing reporter (mCherry / mNeonGreen) co-transfected with ADAR variants, fluorescence microscopy / ImageJ quantification. Particulars: HEK 293 FT cells co-transfected with reporter containing 2 UAG stop codons in the hairpin; two days after transfection.
The subject of experiment [2] is UAG-MS2 editing reporter. As to the kind of experiment: Stop codon editing reporter (mCherry / mNeonGreen) co-transfected with ADAR variants, flow cytometry (median mNeonGreen to mCherry). Particulars: n=1. From the text: For the reporter system, the inventors used the fluorescent protein-epitope tag tandem fusions of mCherry-FLAG and HA-mNeonGreen as the upstream and downstream coding regions. Without DD editing activity, translation is terminated after mCherry-FLAG. Coexpression with MCP-ADAR2-DD was hypothesized to lead to binding of MCP-DD, stop codon UAG editing to UIG, and expression of mNeonGreen (FIG. 1B).
HEK 293 FT cells were co-transfected with plasmids expressing the reporter containing 2 UAG stop codons in the hairpin and a pcDNA3 construct encoding a fusion protein composed of MCP, ADAR2-DD (E488Q), and TagBFP.
Two days later, fluorescence microscopy images were taken of the cell populations. […] The inventors repeated the experiment and analyzed the samples by flow-cytometry.
The inventors transiently co-transfected HEK 293 FT cells with the mCherry-mNeonGreen reporter, MCP-ADAR2-DD variants containing different configurations of ALFA-tag insertions and NbALFA fusions, and uncaging constructs containing miRFP670 fused to ALFA. Without wishing to be bound by theory, it was hypothesized that the intramolecular interaction would inhibit the ADAR2-DD, but that the ALFA tag on the miRFP670 would displace the lower strength ALFA variants (PE and 78), and perhaps at high enough concentrations displace the intramolecular ALFA, and lead to increased editing.
The inventors then made an ADAR-DD variant with an inserted TEV protease cut site (amino acids ENLYFQG, SEQ ID NO: 286) between the C-terminus of ADAR2-DD and the N-terminus of SpyCatcher (FIG. 5C). The inventors co-transfected HEK 293 FT cells with the reporter construct, the ADAR-DD TEVcs variant, and the TEV protease and 48 hours later analyzed the transfected cells via flow cytometry (FIG. 5D-5E).
Mutated versions were then cloned and co-transfected with an editing reporter in the absence and presence of A-1331852, and absolute background and fold change upon drug addition were determined by flow cytometry (see e.g., FIG. 22d and table 11).

A further experiment deals with AUA reporter. The experiment in a line: Creation of a START codon (AUA to AUI), EGFPd2/dTomato reporter, flow cytometry. Particulars: 48 hours post-transfection, n=3. The text has this: To test this, an ADAR substrate was designed composed of a dsRNA hairpin containing both an AUA-codon with a mismatch at the second adenine to promote specific deamination to AUI (as opposed to IUA or IUI) and an MS2 operator motif (see e.g., FIG. 26b). The design of one large dsRNA hairpin was chosen to promote correct folding of RNA secondary structures. Previous studies have shown that MS2 operators in the 5′UTR of eukaryotic mRNA can lead to decreased translational efficiency when co-expressed with its corresponding coat protein (MS2 coat protein, or MCP), so high and low affinity variants of the MS2 operator (called here MS2-C and MS2-A respectively for the base at the stem loop) were tested with the idea that the lower affinity MS2-A loop would be less likely to inhibit translation by coat protein alone. As positive controls, the same loops were also designed with the correct AUG start codon.
These designs were cloned into pcDNA3 vectors containing a bidirectional CMV promoter driving constitutive dTomato and EGFPd2 (see e.g., FIG. 26c). The S′UTR and start codon of EGFPd2 were replaced with the editable start codon designs so the translational efficiency could be measured by looking at the EGFPd2 fluorescence relative to dTomato when co-expressed with MCP-ADAR. In this construct, if the correct start codon is skipped, the next AUG codon leads to a short, out of frame translation product.
HEK293FT cells were co-transfected with each of the reporter constructs (MS2-C w/ AUG start, MS2-C w/ AUA start, MS2-A w/ AUG start, and MS2-A w/ AUA start) and either filler DNA, inactivated ADAR2-DD (E396A) fused to MCP (MCP-dADAR), or active ADAR2-DD (E488Q) fused to MCP (MCP-ADAR). 48 hours post-transfection, cells were lifted and analyzed by flow cytometry. Transfected cells were gated by dTomato, and the median EGFPd2-to-dTomato ratio for the population was calculated per replicate (n=3) by FLOWJO. 2-Way ANOVA was performed to determine significance.

A further experiment has as its system GFP-GPI reporter. The experiment in a line: AUA to AUI editing creating upstream in-frame signal sequence and HA tag, live imaging and HA staining. The text has this:
To test this, a reporter construct was designed that contained: an MS2-A editable AUA start codon upstream of the murine IgGκ signal sequence and HA epitope tag (SS-HA), an in frame AUG start codon, GFP, and the glycosylphosphatidylinositol (GPI) anchor sequence from Thymocyte differentiation antigen 1 (GPI in diagram) (see e.g., FIG. 27a). With this reporter, in the absence of editing, the majority of the translated product will be from the AUG codon directly upstream of GFP. This will lead to the translation product residing in the cytoplasm with a non-functional GPI anchor (as this post-translational modification (PTM) must occur in the endoplasmic reticulum (ER) lumen). Upon ADAR editing of the upstream AUA to AUI, translation will initiate upstream of the signal sequence, leading to co-translational translocation of HA-GFP-GPI into the ER lumen, the addition of the GPI anchor PTM, and presentation of HA-GFP on the plasma membrane (see e.g., FIG. 27b). With this construct, the editing can be monitored by either by microscopy (looking for ER & plasma membrane localization) or directly by immunostaining for the HA-tag.
HEK cells were co-transfected with the GFP-GPI reporter and either filler DNA, MCP-dADAR, or MCP-ADAR. A GFP-GPI with a functional start codon before the secretion signal was also transfected as a positive control (GFP-GPI Control). One day after transfection, HEK cells were imaged live, and then fixed and stained for HA tag with a primary anti-HA antibody and a secondary antibody that was conjugated to ALEXAFLUOR 647 (AF647).

As for “MCP-linker-ADAR2(E488Q)-TagBFP [MCP-ADAR]”, in the experiment with UAG-MS2 editing reporter [1], the “mNeonGreen expression, fluorescence microscopy” value is on record as “mNeonGreen robustly expressed”. Further, in the experiment with UAG-MS2 editing reporter [2] (1 μM vs 0 μM A-1331852, flow cytometry), the “Fold Change” value was 1.03. The “Flow Cytometry Values, 0 μM (median of the ratio of mNeonGreen to mCherry)” value in the experiment on UAG-MS2 editing reporter [2] (HEK cells co-transfected with ADAR reporter and ADAR variant, 0 μM A-1331852, two days after transfection, gated by BFP) was 0.9853. Moreover, the “Flow Cytometry Values, 1 μM (median of the ratio of mNeonGreen to mCherry)” value in the experiment with UAG-MS2 editing reporter [2] (HEK cells co-transfected with ADAR reporter and ADAR variant, 1 μM A-1331852, two days after transfection, gated by BFP) turned out to be 1.0147. In addition, in the experiment on AUA reporter, the “effect on translational efficiency from a native AUG start codon, MS2-A substrate” value is given as “more modest negative effect on translational efficiency”; the “increase of relative fluorescence, MS2-C w/ AUA reporter, relative to NT” value was “not significant”; the “relative EGFPd2/dTomato fluorescence, MS2-A w/ AUA substrate” value is listed as “significant increase”. For the same substance, the “relative fluorescence (EGFPd2-to-dTomato) of MS2-C reporters compared with filler DNA (NT)” value in the experiment on AUA reporter (2-Way ANOVA) was “significantly decreased the relative fluorescence”. In addition, the “HA tag staining of cells with AUA construct” value in the experiment on GFP-GPI reporter (fixed, permeabilized, anti-HA and AF647 secondary) is listed as “robust staining”. The “cellular distribution of GFP from AUA-SS-GFP-GPI, live imaging” value in the experiment with GFP-GPI reporter (one day after transfection) was “looked very similar”.

Values taken from US12565665B2, “Compositions and methods for controlled mRNA translation and stability” (TRUSTEES OF BOSTON UNIVERSITY, priority 2022, dated 2026).
